Data on 7 compounds can be found in ChEMBL document CHEMBL1201862, “PubChem BioAssay data set” (2004).

The term GI50 denotes the concentration that inhibits growth by half.

The structures appear in SMILES notation.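 Step 1: Grow cells in 96-well plates. Step 2: Expose to compound for 48 hours at 5 concentrations. Step 3: Interpolate endpoints linearly; if unreached, use highest concentration. At the GI50, growth is halved.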 Calls of active or inactive are those of the source. No stated cut-off is given here; in the data, active = GI50 up to about 1.1 µM and inactive = higher.

Test in all cases: DTP human tumour cell line panel, 48 h
Test [1] deals with UACC-62.
Test [2] has as its system U-251.
Test [3] has as its system MDA-MB-231.
For test [4], the system named is K562.
The test system of test [5] is UO-31.
The subject of test [6] is HCT-15.
The subject of test [7] is COLO 205.
The subject of test [8] is TK-10.
Test [9] concerns HCC 2998.
Test [10] deals with RPMI-8226.
Test [11] deals with PC-3.
Test [12] relates to MDA-N.
The test system of test [13] is MCF7.
For test [14], the system named is SW-620.
For test [15], the system named is A498.
Test [16] concerns KM12.
Test [17] relates to OVCAR-5.
For test [18], the system named is A549.
For test [19], the system named is NCI-H522.
In test [20] the test system is SN12C.

Regarding `CCCCCC/C=C\CCCCCCCCCC1=CC(=O)C=C(OC)C1=O` [IRISQUINONE A], the GI50 in [1] was 4.05 µM (inactive); in test [2], 0.713 µM (active); in test [3] it was 4.36 µM (inactive); in [4], 0.753 µM (active); in test [5], 4.57 µM (inactive); in test [6], 2.1 µM. Moreover, the GI50 in test [7] is 1.63 µM (inactive); in test [8] it was 6.05 µM (inactive); in test [9] it was 8.24 µM (inactive); in test [10] it was 2.21 µM (inactive); in test [11] it was 1.81 µM (inactive); in test [12] it was 6.5 µM (inactive). In addition, the GI50 in test [13] is 4.46 µM (inactive); in test [14], 4.6 µM (inactive); in test [15], 5.82 µM (inactive); in [16], 3.75 µM (inactive); in test [17], 5.6 µM (inactive); in [18], 4.06 µM (inactive). The GI50 is 2 µM (inactive) in test [19] and 3.03 µM (inactive) in test [20].
`N=C(N)NC(=N)Nc1ccc(S(N)(=O)=O)cc1`: the GI50 in test [1] is > 100 µM (inactive); in [2], > 100 µM (inactive); in [3] it was > 100 µM (inactive); in test [4], > 100 µM (inactive); in test [5] it was > 100 µM (inactive); in [6] it was > 100 µM. In addition, the GI50 was > 100 µM (inactive) in test [7]; > 100 µM (inactive) in test [8]; 6.27 µM (inactive) in [9]; > 100 µM (inactive) in test [10]; > 100 µM (inactive) in test [11]; > 100 µM (inactive) in [12]. Also, the GI50 in test [13], in test [14], in test [15], in [16], in test [17] and in [18] was > 100 µM (inactive) in each case. The GI50 in test [19] and in test [20] was > 100 µM (inactive) in each case.
In the case of `COc1cc2c3c(cc(Cl)nc3c1OC)C(O)(CC(C)=O)C(=O)N2` (stereo not given), the GI50 in [1] was 16.6 µM (inactive); in [2], 57.8 µM (inactive); in [3] it was 17 µM (inactive); in test [4], 18.5 µM (inactive); in test [5] it was 23.2 µM (inactive); in [6], > 43.4 µM. Moreover, the GI50 was 38.1 µM (inactive) in test [7]; 20.2 µM (inactive) in test [8]; > 44 µM (inactive) in test [9]; 23.8 µM (inactive) in test [10]; 25.1 µM (inactive) in test [11]; 17.3 µM (inactive) in test [12]. Besides, the GI50 in test [13] was 16 µM (inactive); in test [14], 27.4 µM (inactive); in [15], 18.3 µM (inactive); in [16], > 45.5 µM (inactive); in test [17], > 42.4 µM (inactive); in test [18], > 42.9 µM (inactive). The GI50 in [19] was 8.97 µM (inactive); in test [20], 21.7 µM (inactive).
As for `N#Cc1ccnc(C(=O)N2CCCC2C(=O)O)c1` (stereo not given), the GI50 is > 100 µM (inactive) in test [1]; > 100 µM (inactive) in test [2]; > 100 µM (inactive) in [3]; > 82.8 µM (inactive) in test [4]; > 100 µM (inactive) in test [5]; > 100 µM in test [6]. Also, the GI50 in [7], in test [8], in test [9], in test [10], in test [11] and in [12] was > 100 µM (inactive) each time. The GI50 in [13], in test [14], in test [15], in test [16], in test [17] and in [18] was > 100 µM (inactive) in each case. Also, the GI50 in test [19] and in [20] was > 100 µM (inactive) each time.
As to `Cc1ccc(Nc2nc(C)c(C(=O)CC(=O)C(=O)Nc3ccc(Cl)cc3)s2)cc1`, the GI50 in test [1] is > 100 µM (inactive); in [2], > 100 µM (inactive); in test [3], 56.5 µM (inactive); in test [4] it was > 100 µM (inactive); in [5], > 100 µM (inactive); in test [6], > 100 µM. Further, the GI50 in test [7], in [8], in test [9], in test [10], in test [11] and in [12] was > 100 µM (inactive) each time. For the same compound, the GI50 in test [13], in [14], in test [15], in test [16], in test [17] and in test [18] was > 100 µM (inactive) each time. Moreover, the GI50 in test [19] and in [20] was > 100 µM (inactive) each time.
`CC(=O)c1c(O)c(C)c(O)c(Cc2c(O)c3c(c(C(=O)/C=C/c4ccccc4)c2O)OC(C)(C)C=C3)c1O` [ROTTLERIN]: the GI50 in [1] is 2.95 µM (inactive); in test [2] it was 2.31 µM (inactive); in test [3], 2.08 µM (inactive); in test [4], 1.07 µM (active); in [5] it was 2.26 µM (inactive); in test [6] it was 2.52 µM. Moreover, the GI50 in test [7] is 1.68 µM (inactive); in test [8], 2.98 µM (inactive); in test [9], 2.23 µM (inactive); in test [10] it was 1.79 µM (inactive); in [11], 1.11 µM (active); in test [12], 3.14 µM (inactive). Moreover, the GI50 was 3.13 µM (inactive) in test [13]; 3.19 µM (inactive) in [14]; 1.95 µM (inactive) in [15]; 2.81 µM (inactive) in test [16]; 3.56 µM (inactive) in test [17]; 0.986 µM (active) in [18]. In addition, the values for the GI50 in test [19] and in test [20] were 1.95 µM (inactive) and 2.21 µM (inactive), respectively.
With `Ic1cccc(/C=C/CN2CCN(CCOC(c3ccccc3)c3ccccc3)CC2)c1`, the GI50 was 18.6 µM (inactive) in test [1]; 13.6 µM (inactive) in test [2]; 14 µM (inactive) in [3]; 4.62 µM (inactive) in [4]; 13 µM (inactive) in [5]; 14.2 µM in [6]. Further, the GI50 in [7] is 8.51 µM (inactive); in [8], 16.1 µM (inactive); in test [9], 6.97 µM (inactive); in test [10], 3.01 µM (inactive); in test [11], 17.5 µM (inactive); in test [12] it was 17.9 µM (inactive). The GI50 in test [13] is 14.6 µM (inactive); in test [14], 26.7 µM (inactive); in test [15] it was 16.7 µM (inactive); in test [16] it was 14.9 µM (inactive); in [17], 16.7 µM (inactive); in [18] it was 17.5 µM (inactive). Besides, the results for the GI50 in [19] and in test [20] were 16.1 µM (inactive) and 13.9 µM (inactive), respectively.
